# Laboratory results reported in patent US20090057617A1, “Corrosion inhibitors containing anionic surfactants” (priority 2007, published 2009).
# Assay: Shell wheel test (corrosion inhibition)
# Settings: 50 ppm of a 24% solution of the inhibitor; salt water/petroleum mixture 9:1, 5% NaCl, pH 3.5; 40 rpm, 70° C., 24 hours; from decrease in coupon mass, based on a blank value
# Description: The compounds according to the invention were tested as corrosion inhibitors in the Shell wheel test. Coupons of C steel (DIN 1.1203 with 15 cm^2 surface area) were immersed in a salt water/petroleum mixture (9:1,5% strength NaCl solution adjusted to pH 3.5 with acetic acid) and exposed to this medium at a speed of 40 rpm at 70° C. for 24 hours. The inhibitor dose was 50 ppm of a 24% solution of the inhibitor. The protection values were calculated from the decrease in the mass of the coupons, based on a blank value.
smiles,measurement,value
"CCCCCCCC/C=C\CCCCCCCC(=O)NC(CCSC)C(=O)[O-].[K+] (racemic) [example 2, N-Oleoyl-DL-methionine potassium Salt]",ø protection %,69%
